This passage reports IC50 results from patent US10689362B2, “Quinoxaline compounds as type III receptor tyrosine kinase inhibitors” (Development Center for Biotechnology, priority 2016, dated 2020).

For experiment [1], the system named is CSF-1-dependent M-NFS-60 mouse myeloid leukemia cell. As to the kind of experiment: M-NFS-60 cell proliferation assay (CellTiter-96). Format: cell-based. As to conditions: Cytotoxicity, M-NFS-60 cells, 72 hours. On the procedure: (§1) Inhibition of cell growth by compounds was measured using CellTiter™-96 assay. The cytotoxicity of compounds was evaluated in CSF-1-dependent M-NFS-60 mouse myeloid leukemia cell, FLT3 signal addicted MV4-11 human acute myeloid leukemia cell with FLT3-ITD mutation, c-KIT signal addicted Kasumi-1 human acute myeloid leukemia cell with c-KIT N822K activating mutation, and THP-1 human acute monocytic leukemia cell harboring NRAS G12D mutation.
The compounds disclosed herein were tested in M-NFS-60 cell proliferation assay to determine their cellular potency against CSF-1R. […] Inhibition of CSF-1R kinase activity will cause reduced growth and/or cell death. […] Cells were allowed to expand until reaching saturation at which point they were subcultured or harvested for assay use.
(§2) M-NFS-60, Kasumi-1, MV4-11 and THP-1 cells were seeded into 96-well plates at 2000, 64000, 6500, and 5000 cells/well, respectively, and incubated at 37° C., 5% CO2 overnight. Then, these seeded cells were treated with increasing concentrations of the test compounds and incubated for another 72 hours. At the end of the incubation, CellTiter96® AQueous One Solution Reagent (Promega) was added and incubated for 4 hours. Cell viability was determined by measuring absorbance at 490 nm using EMax® microplate reader (Molecular Devices).

Experiment [2] has as its target CSF-1R kinase (Homo sapiens (Human), UniProt P07333). As to the kind of experiment: CSF-1R kinase assay (AlphaScreen). The format is biochemical. The procedure: Inhibition of CSF-1R kinase activity by a test compound disclosed herein was estimated by AlphaScreen (PerkinElmer). […] Reactions were incubated at 30° C. for 45 min and stopped by adding 5 μL of 50 mM EDTA. Analysis of resulting product using an AlphaScreen kit, and counted with Enspire Alpha (PerkinElmer). […] The IC50 values of quinoxaline compounds of this invention against CSF-1R kinase were determined using the GraphPad Prism 5 software.
A general note: Alpha assays give light when donor and acceptor beads are brought close together.

Experiment [3] deals with MV4-11 human acute myeloid leukemia cell with FLT3-ITD mutation. As to the kind of experiment: MV4-11 cell proliferation assay (CellTiter-96). Format: cell-based. As to conditions: Cytotoxicity, MV4-11 cells, 72 hours. On the procedure:
as §1
The compounds disclosed herein were tested in MV4-11 cell proliferation assay to determine their cellular potency against FLT3 kinase. MV4-11 human acute myeloid leukemia cells harbor ligand-independent FLT3-ITD activating mutation, which render its proliferation FLT3-ITD dependent. Inhibition of FLT3 kinase activity will cause reduced growth and/or cell death. […] Cells were allowed to expand until reaching saturation at which point they were subcultured or harvested for assay use.
as §2

Experiment [4] deals with PDGFRβ kinase (Homo sapiens (Human), UniProt P09619). As to the kind of experiment: PDGFRβ kinase assay (radiometric). The format is biochemical. As to conditions: bound. On the procedure:
(§3) Inhibition of PDGFRβ kinase activity by a test compound disclosed herein was estimated by radiometric assay. Standard assay conditions were 10 ng of recombinant PDGFRβ (SignalChem) with 2 μg of substrate Poly-(Glu 4:Tyr 1) (sigma) in the assay buffer in kinase reaction buffer (10 mM MOPS pH 7.0, 0.21 mM EDTA, 0.5% glycerol, 0.001% Brij-35, 0.01 2-mercaptoehtanol, 1 mg/ml BSA, 10 mM MgCl2, 10 mM MnCl2, 10 μM ATP, 0.1 μCi per well [^33P]-ATP), in the presence of test compound (diluted in final concentration of 4% DMSO) or DMSO control, with a final volume of 25 μl for 60 minutes at 30° C. The reaction was stopped by adding 5 μl of 3% phosphoric acid solution. Total reaction solution was then harvested onto a filter plate (UniFilter-96 GF/B, PerkinElmer), and washed 20 times for 5 min with dH2O. 30 μl of MicroScint™-20 Cocktail (PerkinElmer) was added to dried plate. The plate was sealed and counted using a TopCount scintillation detector (PerkinElmer). […] The IC50 values of quinoxaline compounds of this invention against PDGFRβ kinase were determined using the GraphPad Prism 5 software.
(§4) The IC50 values for selected quinoxaline compounds of this invention against CSF-1R, c-KIT, FLT3, and PDGFRβ are summarized in Table 3.

For experiment [5], the system named is Kasumi-1 human acute myeloid leukemia cell with c-KIT N822K activating mutation. As to the kind of experiment: Kasumi-1 cell proliferation assay (CellTiter-96). Conditions: Cytotoxicity, Kasumi-1 cells, 72 hours. Format: cell-based. On the procedure:
as §1
The compounds disclosed herein were tested in Kasumi cell proliferation assay to determine their cellular potency against c-KIT kinase. Kasumi human acute myeloid leukemia cells harbor ligand-independent N822K c-KIT activating mutation, thus the cell proliferation relied on c-KIT signal. Inhibition of c-KIT kinase activity will cause reduced growth and/or cell death. […] Cells were allowed to expand until reaching saturation at which point they were subcultured or harvested for assay use.
as §2

Experiment [6] addresses FLT3 kinase (Homo sapiens (Human), UniProt P36888). As to the kind of experiment: FLT3 kinase assay (radiometric). As to conditions: bound. The format is biochemical. The procedure:
Inhibition of FLT3 kinase activity by a test compound disclosed herein was estimated by radiometric assay. Standard assay conditions were 5 ng of recombinant FLT3 (Thermo Fisher) with 2 μg of substrate Poly-(Glu 4:Tyr 1) (sigma) in the assay buffer in kinase reaction buffer (10 mM MOPS pH 7.0, 0.21 mM EDTA, 0.5% glycerol, 0.001% Brij-35, 0.01 2-mercaptoehtanol, 1 mg/ml BSA, MgCl2 10 mM, 10 μM ATP, 0.1 μCi per well [^33P]-ATP, in the presence of test compound (diluted in final concentration of 4% DMSO) or DMSO control, with a final volume of 25 μl for 60 minutes at 30° C. The reaction was stopped by adding 5 μl of 3% phosphoric acid solution. Total reaction solution was then harvested onto a filter plate (UniFilter-96 GF/B, PerkinElmer), and washed 20 times for 5 min with dH2O. 30 μl of MicroScint™-20 Cocktail (PerkinElmer) was added to dried plate. The plate was sealed and counted using a TopCount scintillation detector (PerkinElmer). […] The IC50 values of quinoxaline compounds of this invention against FLT3 kinase were determined using the GraphPad Prism 5 software.
as §4

In experiment [7] the test system is THP-1 human acute monocytic leukemia cell harboring NRAS G12D mutation. As to the kind of experiment: THP-1 cell proliferation assay (counter screen, CellTiter-96). The format is cell-based. As to conditions: Cytotoxicity, THP-1 cells (counter screen), 72 hours. On the procedure: as §1
THP-1 human acute monocytic leukemia cells harbor NRAS G12D mutation, which renders cell proliferate independently of class III RTKs signal. […] Cells were allowed to expand until reaching saturation at which point they were subcultured or harvested for assay use.
as §2
In general terms: The purpose of a counterscreen is to sort out artefacts and off-target activity.

Experiment [8] has as its target c-KIT kinase (Homo sapiens (Human), UniProt P10721). Nature of the experiment: c-KIT kinase assay (radiometric). Format: biochemical. On the procedure: as §3, with “of c-KIT” for “of PDGFRβ”, “were 20” for “were 10”, “recombinant c-Kit” for “recombinant PDGFRβ”, “well [^33P]-ATP,” for “well [^33P]-ATP),”, “against c-KIT” for “against PDGFRβ”
as §4

Structures are written as SMILES.

Sequence of PDGFRβ kinase (P09619 33-1106): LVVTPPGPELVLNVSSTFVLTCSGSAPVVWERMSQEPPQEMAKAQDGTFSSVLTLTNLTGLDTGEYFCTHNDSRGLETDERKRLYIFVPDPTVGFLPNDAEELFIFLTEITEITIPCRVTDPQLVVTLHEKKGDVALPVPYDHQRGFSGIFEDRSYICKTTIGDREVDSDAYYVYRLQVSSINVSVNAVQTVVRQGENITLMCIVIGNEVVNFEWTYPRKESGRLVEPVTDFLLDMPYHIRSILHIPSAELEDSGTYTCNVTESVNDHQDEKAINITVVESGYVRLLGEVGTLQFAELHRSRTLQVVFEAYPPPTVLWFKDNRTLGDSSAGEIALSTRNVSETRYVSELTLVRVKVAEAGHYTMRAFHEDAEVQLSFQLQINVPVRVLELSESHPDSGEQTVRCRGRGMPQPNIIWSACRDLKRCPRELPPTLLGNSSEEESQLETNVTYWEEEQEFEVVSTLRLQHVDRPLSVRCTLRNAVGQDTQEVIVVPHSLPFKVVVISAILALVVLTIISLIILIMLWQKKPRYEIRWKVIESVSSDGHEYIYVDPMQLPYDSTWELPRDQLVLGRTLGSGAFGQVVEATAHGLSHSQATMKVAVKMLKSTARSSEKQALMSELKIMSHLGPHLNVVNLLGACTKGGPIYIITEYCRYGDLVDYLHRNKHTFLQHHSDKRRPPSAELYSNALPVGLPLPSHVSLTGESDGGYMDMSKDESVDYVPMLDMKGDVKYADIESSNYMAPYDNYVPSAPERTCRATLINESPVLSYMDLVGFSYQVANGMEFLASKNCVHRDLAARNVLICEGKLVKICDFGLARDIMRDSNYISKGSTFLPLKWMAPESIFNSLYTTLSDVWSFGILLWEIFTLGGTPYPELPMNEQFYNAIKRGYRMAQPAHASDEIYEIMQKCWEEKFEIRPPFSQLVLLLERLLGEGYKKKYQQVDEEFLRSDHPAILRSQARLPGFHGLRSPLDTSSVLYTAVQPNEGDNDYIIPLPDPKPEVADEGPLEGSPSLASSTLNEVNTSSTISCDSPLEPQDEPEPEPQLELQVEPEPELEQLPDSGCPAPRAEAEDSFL
Sequence of c-KIT kinase (P10721 26-976): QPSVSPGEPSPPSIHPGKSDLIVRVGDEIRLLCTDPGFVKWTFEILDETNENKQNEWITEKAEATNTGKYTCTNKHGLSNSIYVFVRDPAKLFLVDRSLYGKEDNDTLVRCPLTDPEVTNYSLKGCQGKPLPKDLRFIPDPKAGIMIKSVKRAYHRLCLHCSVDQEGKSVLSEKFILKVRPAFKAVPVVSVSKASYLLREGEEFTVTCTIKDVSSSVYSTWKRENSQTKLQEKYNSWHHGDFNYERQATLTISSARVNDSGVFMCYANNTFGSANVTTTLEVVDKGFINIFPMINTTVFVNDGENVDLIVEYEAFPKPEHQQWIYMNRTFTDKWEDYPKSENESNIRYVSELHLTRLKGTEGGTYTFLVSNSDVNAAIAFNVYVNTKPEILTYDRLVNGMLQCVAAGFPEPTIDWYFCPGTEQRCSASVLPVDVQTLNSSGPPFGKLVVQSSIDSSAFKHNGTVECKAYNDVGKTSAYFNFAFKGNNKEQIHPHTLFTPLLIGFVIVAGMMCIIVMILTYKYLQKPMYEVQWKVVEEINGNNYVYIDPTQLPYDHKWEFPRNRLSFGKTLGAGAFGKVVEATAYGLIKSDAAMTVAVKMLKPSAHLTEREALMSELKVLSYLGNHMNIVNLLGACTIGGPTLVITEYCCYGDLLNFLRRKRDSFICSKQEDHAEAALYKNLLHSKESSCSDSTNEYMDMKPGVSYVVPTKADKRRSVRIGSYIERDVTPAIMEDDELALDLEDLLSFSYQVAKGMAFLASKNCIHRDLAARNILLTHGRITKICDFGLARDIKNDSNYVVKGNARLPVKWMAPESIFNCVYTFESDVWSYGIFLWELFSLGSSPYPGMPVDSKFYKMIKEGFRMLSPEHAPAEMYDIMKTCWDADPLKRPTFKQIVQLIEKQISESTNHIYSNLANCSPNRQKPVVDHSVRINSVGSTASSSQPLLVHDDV
Sequence of CSF-1R kinase (P07333 20-972): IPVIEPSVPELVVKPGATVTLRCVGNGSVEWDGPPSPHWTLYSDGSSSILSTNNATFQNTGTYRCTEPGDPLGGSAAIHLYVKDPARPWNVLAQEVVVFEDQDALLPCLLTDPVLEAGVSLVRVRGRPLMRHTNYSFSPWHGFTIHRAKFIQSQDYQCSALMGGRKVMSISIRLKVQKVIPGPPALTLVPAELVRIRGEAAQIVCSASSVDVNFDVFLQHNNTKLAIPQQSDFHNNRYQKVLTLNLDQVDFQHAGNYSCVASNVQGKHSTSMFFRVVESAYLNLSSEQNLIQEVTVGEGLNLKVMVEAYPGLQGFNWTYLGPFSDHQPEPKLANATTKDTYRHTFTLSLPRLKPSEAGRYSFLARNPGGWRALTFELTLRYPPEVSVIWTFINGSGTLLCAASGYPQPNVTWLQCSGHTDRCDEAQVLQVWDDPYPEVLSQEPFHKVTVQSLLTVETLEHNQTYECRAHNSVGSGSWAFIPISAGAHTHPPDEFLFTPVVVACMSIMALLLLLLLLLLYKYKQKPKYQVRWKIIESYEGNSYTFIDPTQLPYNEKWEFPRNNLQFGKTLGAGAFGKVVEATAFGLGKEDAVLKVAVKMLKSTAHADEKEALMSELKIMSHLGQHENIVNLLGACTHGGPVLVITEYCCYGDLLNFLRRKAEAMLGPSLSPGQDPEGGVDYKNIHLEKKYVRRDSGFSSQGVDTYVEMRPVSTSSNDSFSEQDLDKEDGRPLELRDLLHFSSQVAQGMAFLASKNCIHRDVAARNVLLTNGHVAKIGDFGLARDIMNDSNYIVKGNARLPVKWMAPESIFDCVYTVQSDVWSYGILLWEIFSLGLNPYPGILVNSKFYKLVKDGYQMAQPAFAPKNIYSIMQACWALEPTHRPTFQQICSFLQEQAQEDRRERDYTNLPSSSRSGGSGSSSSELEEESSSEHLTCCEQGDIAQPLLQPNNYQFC
Sequence of FLT3 kinase (P36888 27-993): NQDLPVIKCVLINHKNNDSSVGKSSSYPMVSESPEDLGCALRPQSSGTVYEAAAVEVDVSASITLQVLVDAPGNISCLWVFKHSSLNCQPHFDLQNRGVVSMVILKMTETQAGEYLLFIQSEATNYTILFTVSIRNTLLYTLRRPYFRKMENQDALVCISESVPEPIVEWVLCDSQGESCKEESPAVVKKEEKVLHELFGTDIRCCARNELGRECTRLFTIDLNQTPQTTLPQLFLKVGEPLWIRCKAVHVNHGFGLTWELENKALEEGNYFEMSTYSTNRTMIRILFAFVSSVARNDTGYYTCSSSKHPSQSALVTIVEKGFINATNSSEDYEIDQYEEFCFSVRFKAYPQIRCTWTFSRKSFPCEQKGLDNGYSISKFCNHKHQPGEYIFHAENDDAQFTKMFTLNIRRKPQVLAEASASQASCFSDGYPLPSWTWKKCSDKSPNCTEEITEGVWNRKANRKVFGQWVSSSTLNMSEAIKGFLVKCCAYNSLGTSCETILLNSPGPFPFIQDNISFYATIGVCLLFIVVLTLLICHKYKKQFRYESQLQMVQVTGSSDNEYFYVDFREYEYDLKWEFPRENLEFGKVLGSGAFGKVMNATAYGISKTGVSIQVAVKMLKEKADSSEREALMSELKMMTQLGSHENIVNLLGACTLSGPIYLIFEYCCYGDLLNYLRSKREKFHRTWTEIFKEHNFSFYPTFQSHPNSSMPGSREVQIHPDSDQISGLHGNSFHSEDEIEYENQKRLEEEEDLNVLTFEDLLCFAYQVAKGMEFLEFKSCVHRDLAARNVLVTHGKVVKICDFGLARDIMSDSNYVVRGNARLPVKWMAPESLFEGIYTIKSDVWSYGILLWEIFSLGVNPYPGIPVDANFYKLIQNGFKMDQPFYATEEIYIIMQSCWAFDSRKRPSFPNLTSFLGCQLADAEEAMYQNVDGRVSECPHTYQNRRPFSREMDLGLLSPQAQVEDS

Consider `COc1ccc(COc2ccc(Nc3ccc4ncc(N5CCOCC5)nc4c3C#N)cc2Cl)cc1` [Example 63, 6-((3-chloro-4-((4-methoxybenzyl)oxy)phenyl)amino)-3-morpholinoquinoxaline-5-carbonitrile], for which the IC50 in experiment [1] was 1000 to 10000 nM; in experiment [2] (class symbol), below 100 nM; in experiment [3] it was above 10000 nM; in experiment [4] it was above 1000 nM; in experiment [5], above 10000 nM; in experiment [6] it was above 1000 nM. The IC50 in experiment [7] is above 10000 nM; in experiment [8] (bound), above 1000 nM.
`CCOc1ccc(COc2ccc(Nc3ccc4ncc(OC)nc4c3C#N)cc2OC)cc1` [Example 20, 6-((4-((4-ethoxybenzyl)oxy)-3-methoxyphenyl)amino)-3-methoxyquinoxaline-5-carbonitrile]: the IC50 in experiment [1] was above 10000 nM; in experiment [2] (class symbol), 300 to 1000 nM; in experiment [3], above 10000 nM; in experiment [4] it was above 1000 nM; in experiment [5] it was 1000 to 10000 nM; in experiment [6] it was above 1000 nM. Further, the IC50 was above 10000 nM in experiment [7] and below 100 nM in experiment [8] (class symbol).
For `COc1cc(Nc2ccc3ncc(N4CCOCC4)nc3c2C#N)ccc1OCc1ccncc1` [Example 46, 6-((3-methoxy-4-(pyridin-4-ylmethoxy)phenyl)amino)-3-morpholinoquinoxaline-5-carbonitrile], the IC50 is 1000 to 10000 nM in experiment [1]; 300 to 1000 nM in experiment [2] (class symbol); 1000 to 10000 nM in experiment [3]; above 1000 nM in experiment [4]; 1000 to 10000 nM in experiment [5]; above 1000 nM in experiment [6]. In addition, the IC50 in experiment [7] is above 10000 nM; in experiment [8] (class symbol), 100 to 300 nM.
With `COc1cc(Nc2ccc3ncc(N4CCOCC4)nc3c2C#N)ccc1OCC1CCCO1` (centres unmarked) [Example 123, 6-((3-methoxy-4-((tetrahydrofuran-2-yl)methoxy)phenyl)amino)-3-morpholinoquinoxaline-5-carbonitrile], the IC50 in experiment [1] is above 10000 nM; in experiment [2] (bound) it was above 1000 nM; in experiment [3] it was 1000 to 10000 nM; in experiment [4] it was above 1000 nM; in experiment [5], 1000 to 10000 nM; in experiment [6] it was above 1000 nM. Further, the results for the IC50 in experiment [7] and in experiment [8] (class symbol) were above 10000 nM and 300 to 1000 nM, respectively.
As for `COc1ccc(COc2ccc(Nc3ccc4ncc(OC)nc4c3)cc2OC)cc1` [Example 5, 3-methoxy-N-(3-methoxy-4-((4-methoxybenzyl)oxy)phenyl)quinoxalin-6-amine], the IC50 in experiment [1] was 1000 to 10000 nM; in experiment [2] (class symbol) it was 100 to 300 nM; in experiment [3], 1000 to 10000 nM; in experiment [4], above 1000 nM; in experiment [5], 1000 to 10000 nM; in experiment [6], above 1000 nM. In addition, the results for the IC50 in experiment [7] and in experiment [8] (bound) were above 10000 nM and above 1000 nM, respectively.
Take `COc1cc(Nc2ccc3ncc(N4CCOCC4)nc3c2C#N)ccc1OCc1cc(C)on1` [Example 61, 6-((3-methoxy-4-((5-methylisoxazol-3-yl)methoxy)phenyl)amino)-3-morpholinoquinoxaline-5-carbonitrile]: the IC50 in experiment [1] was above 10000 nM; in experiment [2] (class symbol), below 100 nM; in experiment [3], above 10000 nM; in experiment [4], above 1000 nM; in experiment [5] it was 300 to 1000 nM; in experiment [6], above 1000 nM. Further, the IC50 was above 10000 nM in experiment [7] and below 100 nM in experiment [8] (class symbol).
Consider `C#CCOc1ccc(Nc2ccc3ncc(N4CCOCC4)nc3c2C#N)cc1OC` [Example 92, 6-((3-methoxy-4-(prop-2-yn-1-yloxy)phenyl)amino)-3-morpholinoquinoxaline-5-carbonitrile], for which the IC50 in experiment [1] was 1000 to 10000 nM; in experiment [2] (class symbol) it was 300 to 1000 nM; in experiment [3], 1000 to 10000 nM; in experiment [4], above 1000 nM; in experiment [5], 300 to 1000 nM; in experiment [6] it was above 1000 nM. Moreover, the values for the IC50 in experiment [7] and in experiment [8] (class symbol) were above 10000 nM and 100 to 300 nM, respectively.
Regarding `COc1cc(Nc2ccc3ncc(N4CCOCC4)nc3c2C#N)ccc1OCc1ccccn1` [Example 57, 6-((3-methoxy-4-(pyridin-2-ylmethoxy)phenyl)amino)-3-morpholinoquinoxaline-5-carbonitrile], the IC50 in experiment [2] (bound) was above 1000 nM; in experiment [4], above 1000 nM; in experiment [6] it was above 1000 nM; in experiment [8] (class symbol) it was 300 to 1000 nM.
In the case of `COc1ccc(COc2ccc(Nc3ccc4ncc(OC)nc4c3C#N)cc2OC)cc1` [Example 3, 3-methoxy-6-((3-methoxy-4-((4-methoxybenzyl)oxy)phenyl)amino)quinoxaline-5-carbonitrile], the IC50 in experiment [2] (class symbol) was 300 to 1000 nM; in experiment [4], above 1000 nM; in experiment [6], above 1000 nM; in experiment [8] (class symbol), 100 to 300 nM.
Turning to `COc1ccc(COc2ccc(Nc3ccc4ncc(-n5ccnc5)nc4c3C#N)cc2OC)cn1` [Example 70, 3-(1H-imidazol-1-yl)-6-((3-methoxy-4-((6-methoxypyridin-3-yl)methoxy)phenyl)amino)quinoxaline-5-carbonitrile], the IC50 in experiment [2] (class symbol) was below 100 nM; in experiment [4], above 1000 nM; in experiment [6], above 1000 nM; in experiment [8] (bound) it was above 1000 nM.

What is called IC50 is the concentration that inhibits the measured activity by half. A higher IC50 goes with weaker potency in that assay.
